This is an account of results in US20070213408A1, “Use of Acetyl L-Carnitine for the Preparation of a Medicine for the Treatment of Neuropathic Pain in Diabetic Patients” (SIGMA-TAU INDUSTRIE FARMACEUTICHE RIUNITE S.P.A., priority 2004, published 2007).

For assay [1], the system named is Patients with type 2 diabetes on insulin treatment. Kind of assay: Double-blind placebo-controlled clinical trials in diabetic peripheral neuropathy, VAS pain assessment, patients on insulin. The class given is in vivo, human. The note with it: 52 weeks. Here is the method: (§1) Two double-blind placebo-controlled clinical trials, identical in their experimental design, were conducted in patients with diagnoses of diabetic peripheral neuropathy selected according to the criteria established in the San Antonio, Tex. conference (Diabetes 37:1000-1004, 1988).
(§2) Acetyl L-carnitine was administered orally at doses of 1.5 g/day and 3.0 g/day for continuously for 52 weeks.
(§3) One objective of the studies consisted in the possible modification of the Visual Analogue Scale (VAS) (Scott J. Huskisson EC. Graphic representation of pain. Pain 1976;2:175-184) in the subjective assessment of pain symptoms and the main sensorimotor clinical parameters.
The second population comprised patients with type 2 diabetes treated with insulin. Here, too, the population included a placebo group (Group 4) matching up to the same inclusion criteria as the patients treated with acetyl L-carnitine (on insulin treatment).

Assay [2] deals with patients with diabetic neuropathy. The note with it: approximately 200 patients with diabetic neuropathy; cited from earlier work.
Assay [3] shares this test system. The note with it: 120 patients with diabetic neuropathy; cited from earlier work.
Assay [4] has as its system Patients with type 2 diabetes not on insulin treatment. Kind of assay: Double-blind placebo-controlled clinical trials in diabetic peripheral neuropathy, VAS pain assessment, patients not on insulin. The class given is in vivo, human. As to conditions: for VAS: 52 weeks. The protocol:
as §1, §2, §3

Assay [5] has as its system type I and II diabetics with symmetrical distal polyneuropathy or multineuropathy. As to conditions: treated patients out of 333 recruited; cited from earlier work.

In the case of `CC(=O)O[C@H](CC(=O)[O-])C[N+](C)(C)C` [Acetyl L-carnitine, acetyl L-carnitine], the VAS in assay [1] (1.5 g/die orally, n = 41 pts) came to 16.8 ± 30.1; in assay [1] (3.0 g/day orally, n = 57 pts) it was 25.9 ± 31.2; in assay [4] (1.5 g/day orally, n = 39 pts), 7.6 ± 34.7; in assay [4] (3.0 g/day orally, n = 40 pts), 24.2 ± 32.3. In addition, the “difference between acetyl L-carnitine and placebo” value in assay [2] was “failed to show any significant difference”. The improvement in symptoms entry in assay [3] is listed as “distinct improvement in symptoms”. For the same compound, the “activity compared to the placebo group” value in assay [4] (end of treatment, active only at higher dose (3 g/day)) is listed as “active in a dose-related manner”. In addition, in assay [5], the “patients presenting an improvement in pain symptoms” value is on record as 39%.
